According to patent US12209084B2, “Serotonin 5-HT2B inhibitory compounds” (Zoetis Services LLC, priority 2021, dated 2025):

target: T1, canine 5-HT2B receptor (Canis lupus familiaris, UniProt Q50DZ8); assay: Canine 5-HT2B (c5-HT2B) in-vitro assay (FLIPR calcium response, antagonist mode); format: cell-based; conditions: CHO-K1 cells stably expressing the canine 5-HT2B receptor; intracellular calcium response (FLIPR Calcium 5); inhibition of EC80 concentration of serotonin after 10 minute antagonist incubation; read-out: Compound Receptor IC50 Affinities for c5-HT2B
T1 construct: expressed in transfected cells; host or cells: CHO-K1
Procedure: Canine 5-HT2B (c5-HT2B) In-Vitro Assay
CHO-K1 cells stably expressing the canine 5-HT2B receptor were seeded at 20,000 cells per well in 20 μl culture media (DMEM with GlutaMAX™ high glucose+5% dialyzed FBS+10 mM HEPES+1×MEM Non-Essential Amino Acids of a 384-well black plate with clear bottom for at least 18 hours at 37° C. and 5% CO2. The cell plate was loaded with 20 μl/well of the FLIPR© Calcium 5 Assay kit prepared in HBSS containing calcium and magnesium supplemented with 20 mM HEPES and 5 mM Probenecid at pH 7.4 and incubated at 37° C. and 5% CO2 for 30 minutes and then an additional 30 minutes at room temperature. The intracellular calcium response was measured using the FLIPR® Tetra instrument measuring the kinetic response of the calcium 5 dye at an excitation wavelength of 470-495 nm and emission wavelength of 515-575 nm at room temperature. The cells were initially challenged with a 5× concentration of the antagonist (10 μl/well) after an initial baseline recording and the calcium response was recorded for almost 2 minutes. After the completion of the initial antagonist challenge, the cell plate was incubated at room temperature in the FLIPR Tetra® instrument for 10 minutes. Finally, a second kinetic assay was performed after the 10 minute incubation at room temperature to measure the inhibitory response of the EC80 concentration of serotonin (15 μl/well) after an initial baseline recording. The IC50 concentration was determined for each antagonist tested.
In accordance with the in-vitro assay described above, the IC50 affinities for the c5-HT2B receptors for the compounds of the invention are provided in Table 1.

T1 sequence (Q50DZ8 1-434): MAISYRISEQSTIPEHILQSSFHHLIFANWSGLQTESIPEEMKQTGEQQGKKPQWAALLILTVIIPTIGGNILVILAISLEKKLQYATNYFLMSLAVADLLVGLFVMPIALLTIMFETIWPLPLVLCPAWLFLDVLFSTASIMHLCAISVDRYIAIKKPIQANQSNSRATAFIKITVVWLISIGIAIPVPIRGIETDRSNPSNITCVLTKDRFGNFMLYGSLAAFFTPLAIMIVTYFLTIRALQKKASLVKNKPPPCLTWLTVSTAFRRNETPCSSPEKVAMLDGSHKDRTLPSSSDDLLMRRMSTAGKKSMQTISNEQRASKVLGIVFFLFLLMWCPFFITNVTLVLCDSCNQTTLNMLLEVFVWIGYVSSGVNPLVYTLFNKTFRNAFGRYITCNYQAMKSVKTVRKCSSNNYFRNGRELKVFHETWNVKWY

Q: For `O=C(N[C@@H]1C[C@H]2CC[C@@H](C1)N2Cc1ccccc1)c1ccc2cc[nH]c2c1` [Example 1, N-((1R,3s,5S)-8-benzyl-8-azabicyclo[3.2.1]octan-3-yl)-1H-indole-6-carboxamide], which IC50 is on record?
A: 0.41 nM

Q: Which IC50 does the source give for `O=C(N[C@@H]1C[C@H]2CC[C@@H](C1)N2Cc1ccccc1)c1ccc2cc[nH]c2n1` [Example 2, N-((1R,3s,5S)-8-benzyl-8-azabicyclo[3.2.1]octan-3-yl)-1H-pyrrolo[2,3-b]pyridine-6-carboxamide] here?
A: 0.15 nM

Q: For `O=C(N[C@@H]1C[C@H]2CC[C@@H](C1)N2Cc1ccc(Cl)cc1)c1ccc2cc[nH]c2n1` [Example 3, N-((1R,3s,5S)-8-(4-chlorobenzyl)-8-azabicyclo[3.2.1]octan-3-yl)-1H-pyrrolo[2,3-b]pyridine-6-carboxamide], which IC50 is on record?
A: 1.53 nM

Q: `O=C(N[C@@H]1C[C@H]2CC[C@@H](C1)N2Cc1ccc(F)cc1)c1ccc2cc[nH]c2c1` [Example 4, N-((1R,3s,5S)-8-(4-fluorobenzyl)-8-azabicyclo[3.2.1]octan-3-yl)-1H-indole-6-carboxamide] was tested. Which IC50 did it give?
A: 0.12 nM

Q: For `O=C(N[C@@H]1C[C@H]2CC[C@@H](C1)N2Cc1ccc(Cl)cc1)c1ccc2cc[nH]c2c1` [Example 5, N-((1R,3s,5S)-8-(4-chlorobenzyl)-8-azabicyclo[3.2.1]octan-3-yl)-1H-indole-6-carboxamide], which IC50 is on record?
A: 0.27 nM

Q: `O=C(N[C@@H]1C[C@H]2CC[C@@H](C1)N2Cc1ccc2[nH]ccc2c1)c1ccc2cc[nH]c2c1` [Example 6, N-((1R,3s,5S)-8-((1H-indol-5-yl)methyl)-8-azabicyclo[3.2.1]octan-3-yl)-1H-indole-6-carboxamide] was tested. Which IC50 did it give?
A: 0.31 nM

Q: Which IC50 does the source give for `O=C(N[C@@H]1C[C@H]2CC[C@@H](C1)N2Cc1cccs1)c1ccc2cc[nH]c2c1` [Example 7, N-((1R,3s,5S)-8-(thiophen-2-ylmethyl)-8-azabicyclo[3.2.1]octan-3-yl)-1H-indole-6-carboxamide] here?
A: 1.3 nM

Q: For `Cc1cc2ccc(C(=O)N[C@@H]3C[C@H]4CC[C@@H](C3)N4Cc3ccccc3)cc2[nH]1` [Example 8, N-((1R,3s,5S)-8-benzyl-8-azabicyclo[3.2.1]octan-3-yl)-2-methyl-1H-indole-6-carboxamide], which IC50 is on record?
A: 4 nM

Q: With `O=C(N[C@@H]1C[C@H]2CC[C@@H](C1)N2Cc1ccccc1)c1ccc2c3c([nH]c2c1)CCCC3` [Example 9, N-((1R,3s,5S)-8-benzyl-8-azabicyclo[3.2.1]octan-3-yl)-2,3,4,9-tetrahydro-1H-carbazole-7-carboxamide] as the compound, how does the IC50 read?
A: 112 nM

Q: With `O=C(N[C@@H]1C[C@H]2CC[C@@H](C1)N2Cc1ccccc1)c1ccc2cn[nH]c2c1` [Example 10, N-((1R,3s,5S)-8-benzyl-8-azabicyclo[3.2.1]octan-3-yl)-1H-indazole-6-carboxamide] as the compound, how does the IC50 read?
A: 432 nM

Q: `O=C(N[C@@H]1C[C@H]2CC[C@@H](C1)N2Cc1ccc(C(F)(F)F)cc1)c1ccc2cc[nH]c2c1` [Example 11, N-((1R,3s,5S)-8-(4-(trifluoromethyl)benzyl)-8-azabicyclo[3.2.1]octan-3-yl)-1H-indole-6-carboxamide] was tested. Which IC50 did it give?
A: 92.3 nM

Q: Which IC50 does the source give for `O=C(N[C@@H]1C[C@H]2CC[C@@H](C1)N2Cc1ccccn1)c1ccc2cc[nH]c2c1` [Example 12, N-((1R,3s,5S)-8-(pyridin-2-ylmethyl)-8-azabicyclo[3.2.1]octan-3-yl)-1H-indole-6-carboxamide] here?
A: 54.3 nM

Q: With `O=C(N[C@@H]1C[C@H]2CC[C@@H](C1)N2Cc1cccnc1)c1ccc2cc[nH]c2c1` [Example 13, N-((1R,3s,5S)-8-(pyridin-3-ylmethyl)-8-azabicyclo[3.2.1]octan-3-yl)-1H-indole-6-carboxamide] as the compound, how does the IC50 read?
A: 663 nM

Q: For `O=C(N[C@@H]1C[C@H]2CC[C@@H](C1)N2Cc1ccncc1)c1ccc2cc[nH]c2c1` [Example 14, N-((1R,3s,5S)-8-(pyridin-4-ylmethyl)-8-azabicyclo[3.2.1]octan-3-yl)-1H-indole-6-carboxamide], which IC50 is on record?
A: 2800 nM

Q: With `O=C(N[C@@H]1C[C@H]2CC[C@@H](C1)N2Cc1cnccn1)c1ccc2cc[nH]c2c1` [Example 15, N-((1R,3s,5S)-8-(pyrazin-2-ylmethyl)-8-azabicyclo[3.2.1]octan-3-yl)-1H-indole-6-carboxamide] as the compound, how does the IC50 read?
A: 3700 nM

Q: How did the IC50 turn out when `Cn1ccnc1CN1[C@@H]2CC[C@H]1C[C@H](NC(=O)c1ccc3cc[nH]c3c1)C2` [Example 16, N-((1R,3s,5S)-8-((1-methyl-1H-imidazol-2-yl)methyl)-8-azabicyclo[3.2.1]octan-3-yl)-1H-indole-6-carboxamide] was run?
A: 8700 nM

Q: With `O=C(N[C@@H]1C[C@H]2CC[C@@H](C1)N2c1ccccc1)c1ccc2cc[nH]c2c1` [Example 17, N-((1R,3s,5S)-8-phenyl-8-azabicyclo[3.2.1]octan-3-yl)-1H-indole-6-carboxamide] as the compound, how does the IC50 read?
A: 8280 nM

Q: For `O=C(N[C@@H]1C[C@H]2CC[C@@H](C1)N2Cc1ccccc1)c1ccc2ccn(-c3ccncc3)c2c1` [Example 18, N-((1R,3s,5S)-8-benzyl-8-azabicyclo[3.2.1]octan-3-yl)-1-(pyridin-4-yl)-1H-indole-6-carboxamide], which IC50 is on record?
A: 538 nM

Q: For `N#Cc1c[nH]c2cc(C(=O)N[C@@H]3C[C@H]4CC[C@@H](C3)N4Cc3ccccc3)ccc12` [Example 19, N-((1R,3s,5S)-8-benzyl-8-azabicyclo[3.2.1]octan-3-yl)-3-cyano-1H-indole-6-carboxamide], which IC50 is on record?
A: 144 nM

Q: For `O=C(N[C@@H]1C[C@H]2CC[C@@H](C1)N2Cc1ccccc1)c1ccc2cc(C(F)(F)F)[nH]c2c1` [Example 20, N-((1R,3s,5S)-8-benzyl-8-azabicyclo[3.2.1]octan-3-yl)-2-(trifluoromethyl)-1H-indole-6-carboxamide], which IC50 is on record?
A: 21 nM

Q: How did the IC50 turn out when `O=C(N[C@@H]1C[C@H]2CC[C@@H](C1)N2Cc1ccccc1)c1ccc2ccn(-c3ccc(C(F)(F)F)cc3)c2c1` [Example 21, N-((1R,3s,5S)-8-benzyl-8-azabicyclo[3.2.1]octan-3-yl)-1-(4-(trifluoromethyl)phenyl)-1H-indole-6-carboxamide] was run?
A: 1100 nM

Q: Which IC50 does the source give for `O=C(N[C@@H]1C[C@H]2CC[C@@H](C1)N2Cc1ccccc1)c1ccc2ccn(-c3ccc(F)cc3)c2c1` [Example 22, N-((1R,3s,5S)-8-benzyl-8-azabicyclo[3.2.1]octan-3-yl)-1-(4-fluorophenyl)-1H-indole-6-carboxamide] here?
A: 32 nM

Q: Which IC50 does the source give for `O=C(N[C@@H]1C[C@H]2CC[C@@H](C1)N2Cc1ccccc1)c1ccc2ccn(-c3ccccc3)c2c1` [Example 23, N-((1R,3s,5S)-8-benzyl-8-azabicyclo[3.2.1]octan-3-yl)-1-phenyl-1H-indole-6-carboxamide] here?
A: 57 nM

Q: How did the IC50 turn out when `O=C(N[C@@H]1C[C@H]2CC[C@@H](C1)N2Cc1ccccc1)c1ccc2ccoc2c1` [Example 24, N-((1R,3s,5S)-8-benzyl-8-azabicyclo[3.2.1]octan-3-yl)benzofuran-6-carboxamide] was run?
A: 0.5 nM

Q: How did the IC50 turn out when `O=C(N[C@@H]1C[C@H]2CC[C@@H](C1)N2Cc1ccns1)c1ccc2cc[nH]c2c1` [Example 25, N-((1R,3s,5S)-8-(isothiazol-5-ylmethyl)-8-azabicyclo[3.2.1]octan-3-yl)-1H-indole-6-carboxamide] was run?
A: 1.4 nM

Q: Which IC50 does the source give for `O=C(N[C@@H]1C[C@H]2CC[C@@H](C1)N2Cc1ccsn1)c1ccc2cc[nH]c2c1` [Example 26, N-((1R,3s,5S)-8-(isothiazol-3-ylmethyl)-8-azabicyclo[3.2.1]octan-3-yl)-1H-indole-6-carboxamide] here?
A: 17.7 nM

Q: For `O=C(N[C@@H]1C[C@H]2CC[C@@H](C1)N2Cc1nccs1)c1ccc2cc[nH]c2c1` [Example 27, N-((1R,3s,5S)-8-(thiazol-2-ylmethyl)-8-azabicyclo[3.2.1]octan-3-yl)-1H-indole-6-carboxamide], which IC50 is on record?
A: 108 nM

Q: With `Cc1csc(CN2[C@@H]3CC[C@H]2C[C@H](NC(=O)c2ccc4cc[nH]c4c2)C3)n1` [Example 28, N-((1R,3s,5S)-8-((4-methylthiazol-2-yl)methyl)-8-azabicyclo[3.2.1]octan-3-yl)-1H-indole-6-carboxamide] as the compound, how does the IC50 read?
A: 200 nM
